In patent US20110173718A1, “HERBICIDE TOLERANT PLANTS” (SYNGENTA CROP PROTECTION, INC., priority 2008, published 2011):

Tests used:
Arabidopsis HST = molecular target: T1, Arabidopsis HST (Arabidopsis thaliana, UniProt Q1ACB3); experiment: HST total extraction (non TLC) assay, recombinant Arabidopsis HST from insect cells; assay type: biochemical
T1 construct: GST (factor Xa cleavage site) (N); made in house; host or cells: Sf9 insect cells (baculovirus, pAcG3X), membrane fraction
T1 sequence (Q1ACB3 70-386): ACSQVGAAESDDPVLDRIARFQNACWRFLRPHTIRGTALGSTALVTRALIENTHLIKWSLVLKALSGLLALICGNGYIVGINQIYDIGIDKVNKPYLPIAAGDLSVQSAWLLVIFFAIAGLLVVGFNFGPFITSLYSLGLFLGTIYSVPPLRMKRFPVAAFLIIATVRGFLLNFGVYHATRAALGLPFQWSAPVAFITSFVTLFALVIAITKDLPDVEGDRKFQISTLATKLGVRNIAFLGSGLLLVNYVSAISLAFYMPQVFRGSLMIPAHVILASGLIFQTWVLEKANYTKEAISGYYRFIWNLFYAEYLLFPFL

weeds [1] = experiment: Glasshouse weed control, HST inhibitors alone and with A22, post-emergence; assay type: in vivo; conditions: 336 h, 14 DAT, single replicate, read-out: % control score, Obs; for pest or weed control at 15.625 g/ha: 15.625 g/ha alone; for pest or weed control at 62.5 g/ha: 62.5 g/ha alone; for pest or weed control at 250 g/ha: 250 g/ha alone
Method in brief: (§1)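 Weeds grown in glasshouse trays (24-27 C day, 18-21 C night, ~15 h photoperiod) and track-sprayed in 0.2% X77 at […], pre-emergence or post-emergence at about 7-12 d. HPPD inhibitor A22 applied at 2 g/ha alone or mixed with HST herbicides. Damage scored 0–100% at 14 DAT; synergy calculated by Colby formula.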

weeds [2] = experiment: Glasshouse weed control, HST inhibitors alone and with A22, pre-emergence; assay type: in vivo; conditions: 336 h, 14 DAT; for pest or weed control at 15.625 g/ha: HST inhibitor rate 15.625 g/ha; for pest or weed control at 62.5 g/ha: HST inhibitor rate 62.5 g/ha; for pest or weed control at 250 g/ha: HST inhibitor rate 250 g/ha
Method in brief: as §1

[3] = BRAPL, read-out: BRAPL Obs, % control score
[4] = PANMI, read-out: PANMI Obs, % control score
[5] = SIDSP, read-out: SIDSP Obs, % control score
[6] = Digitaria sanguinalis, DIGSA, read-out: DIGSA Obs, % control score
[7] = Echinochloa crus-galli, ECHCG, read-out: ECHCG Obs, % control score
[8] = Setaria faberi, SETFA, read-out: SETFA Obs, % control score

Row | Estimated IC50 (ppm) (Arabidopsis HST) | SMILES | pest or weed control at 15.625 g/ha (weeds [1]; BRAPL) [%] | pest or weed control at 62.5 g/ha (weeds [1]; BRAPL) [%] | pest or weed control at 250 g/ha (weeds [1]; BRAPL) [%] | pest or weed control at 15.625 g/ha (weeds [1]; PANMI) [%] | pest or weed control at 62.5 g/ha (weeds [1]; PANMI) [%] | pest or weed control at 250 g/ha (weeds [1]; PANMI) [%] | pest or weed control at 15.625 g/ha (weeds [1]; SIDSP) [%] | pest or weed control at 62.5 g/ha (weeds [1]; SIDSP) [%] | pest or weed control at 250 g/ha (weeds [1]; SIDSP) [%] | pest or weed control at 15.625 g/ha (weeds [1]; Digitaria sanguinalis, DIGSA) [%] | pest or weed control at 62.5 g/ha (weeds [1]; Digitaria sanguinalis, DIGSA) [%] | pest or weed control at 250 g/ha (weeds [1]; Digitaria sanguinalis, DIGSA) [%] | pest or weed control at 15.625 g/ha (weeds [1]; Echinochloa crus-galli, ECHCG) [%] | pest or weed control at 62.5 g/ha (weeds [1]; Echinochloa crus-galli, ECHCG) [%] | pest or weed control at 250 g/ha (weeds [1]; Echinochloa crus-galli, ECHCG) [%] | pest or weed control at 15.625 g/ha (weeds [1]; Setaria faberi, SETFA) [%] | pest or weed control at 62.5 g/ha (weeds [1]; Setaria faberi, SETFA) [%] | pest or weed control at 250 g/ha (weeds [1]; Setaria faberi, SETFA) [%] | pest or weed control at 15.625 g/ha (weeds [2]; [3]) [%] | also measured
1 | 16 | O=c1c(-c2c(Cl)cccc2C(F)(F)F)c(O)c2nccnc2n1CC(F)F [Compound 2.20] | 30 | 50 | 95 | 15 | 45 | 85 | 10 | 50 | 55 | 20 | 60 | 80 | 20 | 60 | 90 | 25 | 65 | 80 | 0 | pest or weed control at 62.5 g/ha (weeds [2]; [3]): 10%; pest or weed control at 250 g/ha (weeds [2]; [3]): 60%; pest or weed control at 15.625 g/ha (weeds [2]; [4]): 0%; pest or weed control at 62.5 g/ha (weeds [2]; [4]): 2%; pest or weed control at 250 g/ha (weeds [2]; [4]): 30%; pest or weed control at 15.625 g/ha (weeds [2]; [5]): 0%; pest or weed control at 62.5 g/ha (weeds [2]; [5]): 0%; pest or weed control at 250 g/ha (weeds [2]; [5]): 5%; pest or weed control at 15.625 g/ha (weeds [2]; [6]): 0%; pest or weed control at 62.5 g/ha (weeds [2]; [6]): 0%; pest or weed control at 250 g/ha (weeds [2]; [6]): 20%; pest or weed control at 15.625 g/ha (weeds [2]; [7]): 1%; pest or weed control at 62.5 g/ha (weeds [2]; [7]): 15%; pest or weed control at 250 g/ha (weeds [2]; [7]): 90%; pest or weed control at 15.625 g/ha (weeds [2]; [8]): 0%; pest or weed control at 62.5 g/ha (weeds [2]; [8]): 20%; pest or weed control at 250 g/ha (weeds [2]; [8]): 65%
2 | 64 | O=c1c(-c2c(F)ccc(Cl)c2Cl)c(O)c2nccnc2n1CC(F)F [Compound 2.21] | 5 | 30 | 80 | 10 | 30 | 70 | 5 | 20 | 40 | 0 | 10 | 20 | 0 | 10 | 40 | 2 | 20 | 60 | 0 | pest or weed control at 62.5 g/ha (weeds [2]; [3]): 2%; pest or weed control at 250 g/ha (weeds [2]; [3]): 5%; pest or weed control at 15.625 g/ha (weeds [2]; [4]): 0%; pest or weed control at 62.5 g/ha (weeds [2]; [4]): 0%; pest or weed control at 250 g/ha (weeds [2]; [4]): 0%; pest or weed control at 15.625 g/ha (weeds [2]; [5]): 0%; pest or weed control at 62.5 g/ha (weeds [2]; [5]): 0%; pest or weed control at 250 g/ha (weeds [2]; [5]): 1%; pest or weed control at 15.625 g/ha (weeds [2]; [6]): 0%; pest or weed control at 62.5 g/ha (weeds [2]; [6]): 0%; pest or weed control at 250 g/ha (weeds [2]; [6]): 0%; pest or weed control at 15.625 g/ha (weeds [2]; [7]): 0%; pest or weed control at 62.5 g/ha (weeds [2]; [7]): 0%; pest or weed control at 250 g/ha (weeds [2]; [7]): 5%; pest or weed control at 15.625 g/ha (weeds [2]; [8]): 0%; pest or weed control at 62.5 g/ha (weeds [2]; [8]): 0%; pest or weed control at 250 g/ha (weeds [2]; [8]): 2%
3 | 42 | O=S1(=O)C(c2ccc(Br)cc2C(F)(F)F)=C(O)c2nccnc2N1CC(F)F [Compound 3.5] | 2 | 30 | 65 | 5 | 15 | 70 | 2 | 10 | 10 | 0 | 0 | 5 | 5 | 15 | 30 | 2 | 10 | 40 | 0 | pest or weed control at 62.5 g/ha (weeds [2]; [3]): 0%; pest or weed control at 250 g/ha (weeds [2]; [3]): 0%; pest or weed control at 15.625 g/ha (weeds [2]; [4]): 0%; pest or weed control at 62.5 g/ha (weeds [2]; [4]): 0%; pest or weed control at 250 g/ha (weeds [2]; [4]): 0%; pest or weed control at 15.625 g/ha (weeds [2]; [5]): 0%; pest or weed control at 62.5 g/ha (weeds [2]; [5]): 0%; pest or weed control at 250 g/ha (weeds [2]; [5]): 2%; pest or weed control at 15.625 g/ha (weeds [2]; [6]): 0%; pest or weed control at 62.5 g/ha (weeds [2]; [6]): 0%; pest or weed control at 250 g/ha (weeds [2]; [6]): 0%; pest or weed control at 15.625 g/ha (weeds [2]; [7]): 0%; pest or weed control at 62.5 g/ha (weeds [2]; [7]): 0%; pest or weed control at 250 g/ha (weeds [2]; [7]): 0%; pest or weed control at 15.625 g/ha (weeds [2]; [8]): 0%; pest or weed control at 62.5 g/ha (weeds [2]; [8]): 0%; pest or weed control at 250 g/ha (weeds [2]; [8]): 0%
4 | 63 | CC1=NN(C)C(=O)C(c2c(C)cc(C)cc2C)C1=O (stereo not shown) [Compound 6.1] | 10 | 40 | 75 | 2 | 50 | 80 | 5 | 15 | 20 | 0 | 10 | 30 | 0 | 5 | 50 | 0 | 20 | 70 | 0 | pest or weed control at 62.5 g/ha (weeds [2]; [3]): 0%; pest or weed control at 250 g/ha (weeds [2]; [3]): 10%; pest or weed control at 15.625 g/ha (weeds [2]; [4]): 0%; pest or weed control at 62.5 g/ha (weeds [2]; [4]): 0%; pest or weed control at 250 g/ha (weeds [2]; [4]): 40%; pest or weed control at 15.625 g/ha (weeds [2]; [5]): 0%; pest or weed control at 62.5 g/ha (weeds [2]; [5]): 0%; pest or weed control at 250 g/ha (weeds [2]; [5]): 0%; pest or weed control at 15.625 g/ha (weeds [2]; [6]): 0%; pest or weed control at 62.5 g/ha (weeds [2]; [6]): 0%; pest or weed control at 250 g/ha (weeds [2]; [6]): 2%; pest or weed control at 15.625 g/ha (weeds [2]; [7]): 0%; pest or weed control at 62.5 g/ha (weeds [2]; [7]): 1%; pest or weed control at 250 g/ha (weeds [2]; [7]): 60%; pest or weed control at 15.625 g/ha (weeds [2]; [8]): 0%; pest or weed control at 62.5 g/ha (weeds [2]; [8]): 2%; pest or weed control at 250 g/ha (weeds [2]; [8]): 20%
